From patent US20030045482A1, “Using D-ribose with or without anti-microbial agents to enhance healing and subsequent recovery by both synthesizing and sparing NAD derivatives” (priority 2000, published 2003)

Experiments:
clean wounds = experiment: rate of healing of clean wounds; type: in vivo; conditions: ribose by itself
Source text: (§1) Only with respect to the skin has ribose been used for healing purposes, and these are for wound healing in which ribose in combination with other nutrients improved the rate of healing. […] It then became reasonable to assume that this combination should be extended to internal wounds.

infected wounds = experiment: rate of healing of infected wounds, ribose combined with antibiotics; type: in vivo
Source text: as §1

appetite = appetite after D-ribose aqueous solution given during a meal; type: in vivo, people
Source text: This brings up the paradoxical role that ribose plays with respect to appetite. Ribose is offered to consumers primarily because it is rate-limiting in the production of phosphoribosylpyrophosphate (PRPP), a precursor for salvage and for de novo adenine nucloeotide synthetic pathways, which maintain, AMP and ADP (adenosine diphosphate) for re-synthesis of ATP. The high-energy bonds of ATP are the direct source for muscle contraction including myocardial contractions but also energize every cell in the body, especially the immune system under attack. The presence of de novo D-ribose not only enables ATP to be synthesized much faster, but its presence also serves to stimulate the salvage of these nucleotides. With this in mind, a curious thing has been observed. […] The only explanation for this is that the salvage of these nucleotides especially ATP is stimulated by forcibly spraying the ribose onto the tongue. This causes the stomach to send out less of the hormone ghrelin and a full feeling ensues with less food. If a person is ill, care must be taken not to spray ribose forcibly on the tongue by pump action or compressed gas, but rather have it be swallowed immediately or given parenterally.

ATP synthesis = conditions: with de novo D-ribose; 72 to 96 hours ordinarily required from glucose; cited from earlier work

O=C[C@H](O)[C@H](O)[C@H](O)CO [D-ribose]
rate of healing of clean wounds (clean wounds): will improve the rate of healing of clean wounds | rate of healing of infected wounds (infected wounds): will improve the rate of healing infected wounds | effect on appetite (appetite; aqueous solution sprayed forcibly by pump action on the tongue during a meal): causes the appetite to abate in many people | effect on appetite (appetite; ribose swallowed): far less such effect | time for synthesis of ATP (ATP synthesis): ≥ 8 h
